# Data: ChEMBL document CHEMBL4602695, “Discovery and SARs of 5-Chloro-N4-phenyl-N2-(pyridin-2-yl)pyrimidine-2,4-diamine Derivatives as Oral Available and Dual CDK 6 and 9 Inhibitors with Potent Antitumor Activity” (J Med Chem, 2020)
# What was measured:
# [1] = system: MDA-MB-231; assay: Cell cycle arrest in human MDA-MB-231 cells assessed as accumulation at G0/G1 phase at 4 uM measured after 48 hrs by propidium iodide staining based flow cytometry (reference value: 57.65%); assay type: functional
# [2] = Oral bioavailability in Sprague-Dawley rat at 10 mg/kg by LC-MS/MS analysis; assay type: ADME, organism-based; details: in vivo
# [3] = system: MDA-MB-231; assay: Cell cycle arrest in human MDA-MB-231 cells assessed as accumulation at S phase at 4 uM measured after 48 hrs by propidium iodide staining based flow cytometry (reference value: 26.45%); assay type: functional
# [4] = target: CDK2/Cyclin A2 (Homo sapiens, UniProt P24941); parameters: species or system Sf9
# [5] = AUC (0 to infinity) in Sprague-Dawley rat at 2 mg/kg, iv by LC-MS/MS analysis; assay type: ADME, organism-based; parameters: dose 2 mg/kg, route intravenous, time infinity; details: in vivo
# [6] = Clearance in mouse hepatocytes assessed per million cells by LC-MS/MS analysis; assay type: ADME, cell-based, Hepatocyte; details: read-out: CLH
# [7] = system: MDA-MB-231; assay: Induction of apoptosis in human MDA-MB-231 cells assessed as necrotic cells at 4 uM measured after 48 hrs by Annexin V-FITC/propidium iodide staining based flow cytometry (0.498%); assay type: functional
# [8] = system: MCF7; assay: Antiproliferative activity against human MCF7 cells assessed as inhibition of cell proliferation measured after 48 hrs by CCK8 assay; assay type: functional, cell-based; details: MCF7, 48 h
# [9] = system: MDA-MB-231; assay: Induction of apoptosis in human MDA-MB-231 cells assessed as early apoptotic cells at 4 uM measured after 48 hrs by Annexin V-FITC/propidium iodide staining based flow cytometry (0.877%); assay type: functional
# [10] = Clearance in human hepatocytes assessed per million cells by LC-MS/MS analysis; assay type: ADME, cell-based, Hepatocyte; details: read-out: CLH
# [11] = system: MDA-MB-231; assay: Cell cycle arrest in human MDA-MB-231 cells assessed as accumulation at S phase at 8 uM measured after 48 hrs by propidium iodide staining based flow cytometry (reference value: 26.45%); assay type: functional
# [12] = Half life in Sprague-Dawley rat at 2 mg/kg, iv by LC-MS/MS analysis; assay type: ADME, organism-based; details: in vivo
# [13] = target: Cyclin-dependent kinase 5/CDK5 activator 1 (Homo sapiens, UniProt Q00535); details: Sf9, human, read-out: INH
# [14] = system: MDA-MB-231; assay: Cell cycle arrest in human MDA-MB-231 cells assessed as accumulation at G0/G1 phase at 8 uM measured after 48 hrs by propidium iodide staining based flow cytometry (reference value: 57.65%); assay type: functional
# [15] = Clearance in Sprague-Dawley rat at 10 mg/kg, po by LC-MS/MS analysis; assay type: ADME, organism-based; details: in vivo
# [16] = Half life in mouse hepatocytes by LC-MS/MS analysis; assay type: ADME, cell-based, Hepatocyte
# [17] = system: MDA-MB-231; assay: Cell cycle arrest in human MDA-MB-231 cells assessed as accumulation at G2/M phase at 12 uM measured after 48 hrs by propidium iodide staining based flow cytometry (reference value: 15.9%); assay type: functional
# [18] = system: MDA-MB-231; assay: Induction of apoptosis in human MDA-MB-231 cells assessed as late apoptotic cells at 4 uM measured after 48 hrs by Annexin V-FITC/propidium iodide staining based flow cytometry (2.78%); assay type: functional
# [19] = Cmax in Sprague-Dawley rat at 2 mg/kg, iv by LC-MS/MS analysis; assay type: ADME, organism-based; parameters: dose 2 mg/kg, route intravenous; details: in vivo
# [20] = Toxicity in ICR mouse assessed as weight loss at 500 mg/kg, po administered as single dose measured for 7 days; assay type: organism-based; details: in vivo, 168 h
# [21] = system: MDA-MB-231; assay: Induction of apoptosis in human MDA-MB-231 cells assessed as early apoptotic cells at 8 uM measured after 48 hrs by Annexin V-FITC/propidium iodide staining based flow cytometry (0.877%); assay type: functional
# [22] = Toxicity in human MDA-MB-231 cells xenografted BALB/c nu/nu mouse assessed as body weight loss at 22.5 to 90 mg/kg, po administered once daily for 3 weeks and measured at 3 days interval during compound dosing; assay type: organism-based; details: in vivo
# [23] = Cmax in Sprague-Dawley rat at 10 mg/kg, po by LC-MS/MS analysis; assay type: ADME, organism-based; parameters: dose 10 mg/kg, route oral; details: in vivo
# [24] = Clearance in Sprague-Dawley rat at 2 mg/kg, iv by LC-MS/MS analysis; assay type: ADME, organism-based; details: in vivo
# [25] = system: MDA-MB-231; assay: Induction of apoptosis in human MDA-MB-231 cells assessed as viable cells at 4 uM measured after 48 hrs by Annexin V-FITC/propidium iodide staining based flow cytometry (95.8%); assay type: functional; details: MDA-MB-231, 48 h, read-out: Activity
# [26] = target: CDK9/cyclin T1 (Homo sapiens, UniProt P50750); assay: Binding affinity to recombinant full-length GFP-fused CDK9/His-tagged cyclin T1 (unknown origin) expressed in HEK293T cells measured after 30 mins by microscale thermophoresis method; parameters: species or system HEK-293T
# [27] = system: MDA-MB-231; assay: Induction of apoptosis in human MDA-MB-231 cells assessed as late apoptotic cells at 12 uM measured after 48 hrs by Annexin V-FITC/propidium iodide staining based flow cytometry (2.78%); assay type: functional
# [28] = system: MDA-MB-231; assay: Induction of apoptosis in human MDA-MB-231 cells assessed as early apoptotic cells at 12 uM measured after 48 hrs by Annexin V-FITC/propidium iodide staining based flow cytometry (0.877%); assay type: functional
# [29] = Half life in Sprague-Dawley rat at 10 mg/kg, po by LC-MS/MS analysis; assay type: ADME, organism-based; details: in vivo
# [30] = system: MDA-MB-231; assay: Induction of apoptosis in human MDA-MB-231 cells assessed as viable cells at 12 uM measured after 48 hrs by Annexin V-FITC/propidium iodide staining based flow cytometry (95.8%); assay type: functional; details: MDA-MB-231, 48 h, read-out: Activity
# [31] = Thermodynamic equilibrium solubility in normal saline by HPLC-based shake flask method; assay type: physicochemical; details: read-out: Therm_solubility
# [32] = Tmax in Sprague-Dawley rat at 10 mg/kg, po by LC-MS/MS analysis; assay type: ADME, organism-based; details: in vivo
# [33] = system: MDA-MB-231; assay: Cell cycle arrest in human MDA-MB-231 cells assessed as accumulation at G0/G1 phase at 12 uM measured after 48 hrs by propidium iodide staining based flow cytometry (reference value: 57.65%); assay type: functional
# [34] = system: MDA-MB-231; assay: Cell cycle arrest in human MDA-MB-231 cells assessed as accumulation at S phase at 12 uM measured after 48 hrs by propidium iodide staining based flow cytometry (reference value: 26.45%); assay type: functional
# [35] = Stability in human hepatocytes assessed as parent compound remaining after 120 mins by LC-MS/MS analysis; assay type: ADME, cell-based, Hepatocyte; details: read-out: Stability
# [36] = system: MDA-MB-231; assay: Induction of apoptosis in human MDA-MB-231 cells assessed as late apoptotic cells at 8 uM measured after 48 hrs by Annexin V-FITC/propidium iodide staining based flow cytometry (2.78%); assay type: functional
# [37] = target: CDK6/cyclin D3 (Homo sapiens, UniProt Q00534); assay: Binding affinity to recombinant full-length GFP-fused CDK6/His-tagged cyclin D3 (unknown origin) expressed in HEK293T cells measured after 30 mins by microscale thermophoresis method; parameters: species or system HEK-293T
# [38] = Half life in human hepatocytes by LC-MS/MS analysis; assay type: ADME, cell-based, Hepatocyte
# [39] = Thermodynamic equilibrium solubility in water by HPLC-based shake flask method; assay type: physicochemical; details: read-out: Therm_solubility
# [40] = AUC (0 to infinity) in Sprague-Dawley rat at 10 mg/kg, po by LC-MS/MS analysis; assay type: ADME, organism-based; parameters: dose 10 mg/kg, time infinity, route oral; details: in vivo
# [41] = system: Jurkat; assay: Antiproliferative activity against human Jurkat cells assessed as inhibition of cell proliferation measured after 48 hrs by CCK8 assay; assay type: functional, cell-based
# Sequence of Cyclin-dependent kinase 5/CDK5 activator 1 (Q00535 whole entry): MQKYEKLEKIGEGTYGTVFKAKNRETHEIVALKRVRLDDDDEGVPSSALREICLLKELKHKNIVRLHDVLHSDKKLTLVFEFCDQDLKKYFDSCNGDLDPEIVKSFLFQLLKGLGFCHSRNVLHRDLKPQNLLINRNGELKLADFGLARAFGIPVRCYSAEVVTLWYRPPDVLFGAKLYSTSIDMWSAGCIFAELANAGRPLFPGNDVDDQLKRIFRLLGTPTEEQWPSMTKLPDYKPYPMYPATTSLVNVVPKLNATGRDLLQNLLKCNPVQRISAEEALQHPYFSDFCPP
# Sequence of Cyclin-dependent kinase 5/CDK5 activator 1 (Q15078 whole entry, further chain): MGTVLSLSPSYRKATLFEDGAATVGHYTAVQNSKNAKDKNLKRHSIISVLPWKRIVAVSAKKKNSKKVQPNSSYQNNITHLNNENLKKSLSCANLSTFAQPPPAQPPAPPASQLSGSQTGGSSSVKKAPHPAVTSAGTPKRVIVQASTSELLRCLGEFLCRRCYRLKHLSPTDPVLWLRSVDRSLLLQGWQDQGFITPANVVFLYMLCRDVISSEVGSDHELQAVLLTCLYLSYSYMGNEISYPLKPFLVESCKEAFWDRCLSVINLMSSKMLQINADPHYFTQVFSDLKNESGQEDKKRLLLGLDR
# Sequence of CDK6/cyclin D3 (P30281 whole entry, the tested form may be a part): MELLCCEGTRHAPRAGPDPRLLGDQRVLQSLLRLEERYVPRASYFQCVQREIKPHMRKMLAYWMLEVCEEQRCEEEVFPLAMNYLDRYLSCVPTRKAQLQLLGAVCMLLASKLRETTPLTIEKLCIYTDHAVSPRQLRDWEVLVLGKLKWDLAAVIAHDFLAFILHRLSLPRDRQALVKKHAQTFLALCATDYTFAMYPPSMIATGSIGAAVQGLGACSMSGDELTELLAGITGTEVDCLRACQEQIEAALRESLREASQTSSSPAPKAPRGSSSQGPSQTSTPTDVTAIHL
# Sequence of CDK6/cyclin D3 (Q00534 whole entry, the tested form may be a part): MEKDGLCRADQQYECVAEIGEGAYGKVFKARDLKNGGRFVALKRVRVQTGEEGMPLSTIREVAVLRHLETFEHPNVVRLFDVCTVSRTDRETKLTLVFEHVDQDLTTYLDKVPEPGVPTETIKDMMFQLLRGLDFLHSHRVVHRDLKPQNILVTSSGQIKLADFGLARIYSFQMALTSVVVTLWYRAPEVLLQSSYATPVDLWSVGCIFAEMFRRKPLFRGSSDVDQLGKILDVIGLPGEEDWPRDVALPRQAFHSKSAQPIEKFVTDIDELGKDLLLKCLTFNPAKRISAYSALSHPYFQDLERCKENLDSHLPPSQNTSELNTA
# Sequence of CDK9/cyclin T1 (O60563 whole entry, the tested form may be a part): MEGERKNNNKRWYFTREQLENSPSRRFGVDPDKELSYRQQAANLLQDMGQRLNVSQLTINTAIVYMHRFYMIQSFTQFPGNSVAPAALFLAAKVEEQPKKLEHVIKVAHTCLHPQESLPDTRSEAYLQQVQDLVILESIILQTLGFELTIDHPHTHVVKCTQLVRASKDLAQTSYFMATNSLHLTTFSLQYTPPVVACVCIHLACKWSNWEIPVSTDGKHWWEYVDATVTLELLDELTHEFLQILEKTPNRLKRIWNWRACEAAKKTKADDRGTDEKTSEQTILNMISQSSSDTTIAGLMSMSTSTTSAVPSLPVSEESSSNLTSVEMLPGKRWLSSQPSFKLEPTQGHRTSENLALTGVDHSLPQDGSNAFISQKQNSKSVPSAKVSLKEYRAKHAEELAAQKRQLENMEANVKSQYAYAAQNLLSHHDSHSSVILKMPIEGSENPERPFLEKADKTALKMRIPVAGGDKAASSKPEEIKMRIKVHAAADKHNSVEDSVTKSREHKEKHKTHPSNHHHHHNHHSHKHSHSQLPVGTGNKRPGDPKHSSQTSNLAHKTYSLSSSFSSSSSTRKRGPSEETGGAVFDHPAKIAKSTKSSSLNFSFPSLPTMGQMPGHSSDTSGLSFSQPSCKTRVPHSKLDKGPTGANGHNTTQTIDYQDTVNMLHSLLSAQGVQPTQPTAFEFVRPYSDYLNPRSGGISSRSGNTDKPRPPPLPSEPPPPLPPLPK
# Sequence of CDK9/cyclin T1 (P50750 whole entry, the tested form may be a part): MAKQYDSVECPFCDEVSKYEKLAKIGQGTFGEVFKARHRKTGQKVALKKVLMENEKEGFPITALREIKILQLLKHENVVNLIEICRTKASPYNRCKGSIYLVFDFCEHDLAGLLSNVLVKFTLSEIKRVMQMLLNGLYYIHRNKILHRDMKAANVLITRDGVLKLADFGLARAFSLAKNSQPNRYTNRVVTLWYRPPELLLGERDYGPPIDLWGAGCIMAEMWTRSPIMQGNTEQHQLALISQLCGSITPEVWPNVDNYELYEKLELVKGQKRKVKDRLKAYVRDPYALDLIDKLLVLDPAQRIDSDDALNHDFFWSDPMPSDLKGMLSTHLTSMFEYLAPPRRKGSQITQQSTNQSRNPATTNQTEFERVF
compound,measurement,setting,value
CC(=O)Nc1cccc(Nc2nc(Nc3ccc(N4CCN(C)CC4)cn3)ncc2Cl)c1,Activity,[1],71.85%
same,bioavailability,[2],28.9%
same,Activity,[3],18.97%
same,IC50,[4],> 10 µM
same,AUC(0-inf),[5],641 ng·h/mL
same,hepatocyte CLint,[6],17.7 µL/min/1e6 cells
same,Activity,[7],0.57%
same,IC50,[8],4.01 to 8.08 µM
same,Activity,[9],2.08%
same,hepatocyte CLint,[10],7.5 µL/min/1e6 cells
same,Activity,[11],14.36%
same,half-life,[12],1.76 h
same,inhibition at 1 µM,[13],< 6.6%
same,Activity,[14],77.51%
same,CL/F,[15],180 mL/min/kg
same,half-life,[16],0.653 h
same,Activity,[17],34.27%
same,Activity,[18],3.15%
same,Cmax,[19],995 ng/mL
same,Activity,[20],Non-Toxic
same,Activity,[21],5.06%
same,Activity,[22],Non-Toxic
same,Cmax,[23],101 ng/mL
same,clearance,[24],52.2 mL/min/kg
same,viability at 4 µM,[25],94.2%
same,Kd,[26],0.03 µM
same,Activity,[27],26.4%
same,Activity,[28],16.4%
same,half-life,[29],3.24 h
same,viability at 12 µM,[30],54.9%
same,solubility thermodynamic,[31],214 µg/mL
same,Tmax,[32],4 h
same,Activity,[33],50.5%
same,Activity,[34],15.23%
same,remaining at 2 h,[35],40.4%
same,Activity,[36],6.72%
same,Kd,[37],0.071 µM
same,half-life,[38],1.53 h
same,solubility thermodynamic,[39],340 µg/mL
same,AUC(0-inf),[40],926 ng·h/mL
same,IC50,[41],4.01 to 8.08 µM
